The values below come from PubChem BioAssay AID248 (DTP/NCI, 2004).

The subject of the test is L1210 leukemia ip in BDF1 mice, survival T/C. Kind of test: NCI In Vivo Anticancer Drug Screen. Data for tumor model L1210 Leukemia (intraperitoneal) in B6D2F1 (BDF1) mice. The note with it: endpoint: mean survival time, higher = longer survival. The method, boiled down: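 Antitumor effect is assessed in tumor-bearing animals. Survival in the compound arm is compared with a vehicle-dosed control arm and expressed as their quotient.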

Setting [1] is: dose: 100.0 mg/kg/injection, schedule: Q01DX009 (ip), vehicle: saline with Tween-80.
Setting [2] is: dose: 100.0 mg/kg/injection, schedule: Q04DX003 (ip), vehicle: saline with Tween-80.
Setting [3] is: dose: 200.0 mg/kg/injection, schedule: Q04DX003 (ip), vehicle: saline with Tween-80.
The mark [4] stands for this setting: dose: 400.0 mg/kg/injection, schedule: Q04DX003 (ip), vehicle: saline with Tween-80.
The mark [5] stands for this setting: dose: 200.0 mg/kg/injection, schedule: Q01DX009 (ip), vehicle: saline with Tween-80.
The mark [6] stands for this setting: dose: 400.0 mg/kg/injection, schedule: Q01DX009 (ip), vehicle: saline with Tween-80.
Setting [7] is: dose: 100.0 mg/kg/injection, schedule: Q01DX009 (ip), vehicle: Klucel (hydroxypropylcellulose) (HPC).
Where [8] appears, read: dose: 100.0 mg/kg/injection, schedule: Q04DX003 (ip), vehicle: Klucel (hydroxypropylcellulose) (HPC).
[9] abbreviates: dose: 200.0 mg/kg/injection, schedule: Q01DX009 (ip), vehicle: Klucel (hydroxypropylcellulose) (HPC).
The mark [10] stands for this setting: dose: 400.0 mg/kg/injection, schedule: Q01DX009 (ip), vehicle: Klucel (hydroxypropylcellulose) (HPC).
The mark [11] stands for this setting: dose: 400.0 mg/kg/injection, schedule: Q04DX003 (ip), vehicle: Klucel (hydroxypropylcellulose) (HPC).

Values joined by “and” are separate entries in the source; they are usually repeats but may differ in a detail not shown here. Equal entries are not always repeated. Inconclusive results and toxic doses are left out.

Regarding `O=C(Nc1ccc(C2=NCCN2)cc1)c1cccc2c(C(=O)Nc3ccc(C4=NCCN4)cc3)cccc12`, the T/C was 94 % of control (dose: 9.7 mg/kg/injection, schedule: Q01DX Z (ip), vehicle: carboxymethylcellulose (CMC)); 107 % of control (dose: 14.6 mg/kg/injection, schedule: Q01DX Z (ip), vehicle: carboxymethylcellulose (CMC)); 122 % of control (dose: 22.0 mg/kg/injection, schedule: Q01DX Z (ip), vehicle: carboxymethylcellulose (CMC)); 156 % of control (dose: 30.0 mg/kg/injection, schedule: Q01DX Z (ip), vehicle: carboxymethylcellulose (CMC)); 124 % of control (dose: 33.0 mg/kg/injection, schedule: Q01DX Z (ip), vehicle: carboxymethylcellulose (CMC)); 155 % of control (dose: 49.0 mg/kg/injection, schedule: Q01DX Z (ip), vehicle: carboxymethylcellulose (CMC)). Further, the T/C runs as follows: (dose: 60.0 mg/kg/injection, schedule: Q01DX Z (ip), vehicle: carboxymethylcellulose (CMC)) 204 % of control; (dose: 74.0 mg/kg/injection, schedule: Q01DX Z (ip), vehicle: carboxymethylcellulose (CMC)) 155 % of control; (dose: 111.0 mg/kg/injection, schedule: Q01DX Z (ip), vehicle: carboxymethylcellulose (CMC)) 176 % of control; (dose: 120.0 mg/kg/injection, schedule: Q01DX Z (ip), vehicle: carboxymethylcellulose (CMC)) 175 % of control.

Take `CCCCOc1cc(C(=O)O)ccc1[N+](=O)[O-]`: the T/C is, setting by setting: (dose: 50.0 mg/kg/injection, schedule: Q01DX009 (ip), vehicle: saline with Tween-80) 97 % of control; (dose: 50.0 mg/kg/injection, schedule: Q04DX003 (ip), vehicle: saline with Tween-80) 96 % of control; under setting [1], 98 % of control; under setting [2], 91 % of control; under setting [3], 102 % of control.

For `COc1ccc(NC(=O)CC(C)=O)cc1`, the T/C (dose: 100.0 mg/kg/injection, schedule: Q01DX001 (ip), vehicle: other) was 92 % of control; the T/C under setting [2] is 94 % of control; the T/C (dose: 200.0 mg/kg/injection, schedule: Q01DX001 (ip), vehicle: other) is 97 % of control; the T/C under setting [3] is 100 % of control; the T/C (dose: 400.0 mg/kg/injection, schedule: Q01DX001 (ip), vehicle: other) was 103 % of control; the T/C under setting [4] is 99 % of control.

Take `C=CCN(CC#N)CC#N`: the T/C reads like this: (dose: 5.0 mg/kg/injection, schedule: Q04DX003 (ip), vehicle: Klucel (hydroxypropylcellulose) (HPC)) 98 % of control; (dose: 10.0 mg/kg/injection, schedule: Q04DX003 (ip), vehicle: Klucel (hydroxypropylcellulose) (HPC)) 100 % of control (2×) and 86 % of control.

As to `O=C(O)CNCc1ccc2c(c1)OCCO2`, the T/C (dose: 100.0 mg/kg/injection, schedule: Q01DX001 (ip), vehicle: Klucel (hydroxypropylcellulose) (HPC)) was 108 % of control; the T/C (dose: 200.0 mg/kg/injection, schedule: Q01DX001 (ip), vehicle: Klucel (hydroxypropylcellulose) (HPC)) was 92 % of control; the T/C (dose: 400.0 mg/kg/injection, schedule: Q01DX001 (ip), vehicle: Klucel (hydroxypropylcellulose) (HPC)) was 95 % of control.

For `CCOC(=O)C(CCCCC(NC(C)=O)(C(=O)OCC)C(=O)OCC)(NC(C)=O)C(=O)OCC`, the T/C runs as follows: under setting [1], 92 % of control; under setting [5], 94 % of control; under setting [6], 92 % of control.

`CCN(CC)CCCC(C)Nc1c2ccc(Cl)cc2nc2ccc(F)cc12` (stereo not given): the T/C was 111 % of control (dose: 44.0 mg/kg/injection, schedule: Q01DX Z (ip), vehicle: saline); 117 % of control (dose: 66.0 mg/kg/injection, schedule: Q01DX Z (ip), vehicle: saline); 117 % of control (dose: 100.0 mg/kg/injection, schedule: Q01DX Z (ip), vehicle: saline).

With `O=S1(=O)CC(N2CCCCC2)C12CC1c3ccccc3C2c2ccccc21` (stereo not given), the T/C by setting is: (dose: 100.0 mg/kg/injection, schedule: Q04DX002 (ip), vehicle: Klucel (hydroxypropylcellulose) (HPC)) 104 % of control; (dose: 200.0 mg/kg/injection, schedule: Q04DX002 (ip), vehicle: Klucel (hydroxypropylcellulose) (HPC)) 101 % of control; (dose: 400.0 mg/kg/injection, schedule: Q04DX002 (ip), vehicle: Klucel (hydroxypropylcellulose) (HPC)) 101 % of control.

Consider `CCCCCCCCCCCCCC(=O)[O][Sn]([CH2]CCC)([CH2]CCC)[O]C(=O)CCCCCCCCCCCCC`, for which the T/C is 95 % of control (dose: 0.78 mg/kg/injection, schedule: Q04DX003 (ip), vehicle: other); 98 % of control (dose: 1.56 mg/kg/injection, schedule: Q04DX003 (ip), vehicle: other); 96 % of control (dose: 3.13 mg/kg/injection, schedule: Q04DX003 (ip), vehicle: other); 109 % of control (dose: 6.25 mg/kg/injection, schedule: Q04DX003 (ip), vehicle: other); 101 % of control (dose: 12.5 mg/kg/injection, schedule: Q04DX003 (ip), vehicle: other).

Consider `CN(C)/N=N/c1nc(CCCc2ccccc2)[nH]c1C(N)=O`, for which the T/C was 98 % of control under setting [2], 103 % of control under setting [3] and 110 % of control under setting [4].

For `C=CCNC(=O)N(CC=C)N=O`, the T/C runs as follows: (dose: 1.5 mg/kg/injection, schedule: Q01DX001 (ip), vehicle: carboxymethylcellulose (CMC)) 102 % of control; (dose: 3.0 mg/kg/injection, schedule: Q01DX001 (ip), vehicle: carboxymethylcellulose (CMC)) 95 % of control; (dose: 6.0 mg/kg/injection, schedule: Q01DX001 (ip), vehicle: carboxymethylcellulose (CMC)) 96 % of control; (dose: 12.0 mg/kg/injection, schedule: Q01DX001 (ip), vehicle: carboxymethylcellulose (CMC)) 90 % of control; (dose: 16.0 mg/kg/injection, schedule: Q01DX001 (ip), vehicle: carboxymethylcellulose (CMC)) 102 % of control; (dose: 31.0 mg/kg/injection, schedule: Q01DX001 (ip), vehicle: carboxymethylcellulose (CMC)) 104 % of control. Besides, the T/C reads like this: (dose: 62.0 mg/kg/injection, schedule: Q01DX001 (ip), vehicle: carboxymethylcellulose (CMC)) 100 % of control; (dose: 125.0 mg/kg/injection, schedule: Q01DX001 (ip), vehicle: carboxymethylcellulose (CMC)) 96 % of control.

`OC/C(=N/Nc1ccc2ccccc2n1)c1ccccc1`: the T/C reads like this: under setting [1], 94 % of control; under setting [2], 93 % of control; under setting [5], 93 % of control; under setting [3], 100 % of control; under setting [6], 93 % of control; under setting [4], 89 % of control.

As to `COc1cccc(C(=O)O)c1OS(=O)(=O)c1ccccc1`, the T/C was 98 % of control under setting [7]; 91 % of control under setting [8]; 95 % of control under setting [9]; 93 % of control under setting [10]; 94 % of control under setting [11].

As for `COc1ccc(CCC(C(=O)O)c2ccc(OC)c(OC)c2)cc1OC` (stereo not given), the T/C is 98 % of control and 100 % of control (dose: 45.0 mg/kg/injection, schedule: Q01DX009 (ip), vehicle: Klucel (hydroxypropylcellulose) (HPC)); 96 % of control (dose: 50.0 mg/kg/injection, schedule: Q04DX003 (ip), vehicle: Klucel (hydroxypropylcellulose) (HPC)); 93 % of control and 100 % of control (dose: 65.0 mg/kg/injection, schedule: Q01DX009 (ip), vehicle: Klucel (hydroxypropylcellulose) (HPC)); 94 % of control and 104 % of control under setting [7]; 103 % of control under setting [8]; 93 % of control and 102 % of control (dose: 150.0 mg/kg/injection, schedule: Q01DX009 (ip), vehicle: Klucel (hydroxypropylcellulose) (HPC)). The T/C is 106 % of control under setting [9]; 93 % of control and 96 % of control (dose: 200.0 mg/kg/injection, schedule: Q04DX003 (ip), vehicle: Klucel (hydroxypropylcellulose) (HPC)); 101 % of control under setting [10]; 98 % of control under setting [11].

On to `CC(=O)Nc1ccc(C=O)s1`, for which the T/C by setting is: (dose: 100.0 mg/kg/injection, schedule: Q01DX001 (ip), vehicle: carboxymethylcellulose (CMC)) 97 % of control; (dose: 200.0 mg/kg/injection, schedule: Q01DX001 (ip), vehicle: carboxymethylcellulose (CMC)) 94 % of control; (dose: 400.0 mg/kg/injection, schedule: Q01DX001 (ip), vehicle: carboxymethylcellulose (CMC)) 103 % of control.
